From patent US6482849B1, “Inhibitors of α4β1 mediated cell adhesion” (Tanabe Seiyaku Co., Ltd., priority 1997, dated 2002)

What was measured:
[1] = target: T1, α4β1 integrin (Jurkat cell adhesion to immobilized CS-1 derived peptide CLHPGEILDVPST) (Homo sapiens, UniProt P05556+P13612); test: Jurkat-CS-1 Assay; assay type: cell-based; details: Jurkat cells on CS-1 peptide coated plates
T1 construct: 100 μl of Jurkat cells (2.5×10^6 cells/ml) in DMEM plus BSA; endogenous in cells; host or cells: Jurkat T-cell line
T1 sequence (P13612 34-1032): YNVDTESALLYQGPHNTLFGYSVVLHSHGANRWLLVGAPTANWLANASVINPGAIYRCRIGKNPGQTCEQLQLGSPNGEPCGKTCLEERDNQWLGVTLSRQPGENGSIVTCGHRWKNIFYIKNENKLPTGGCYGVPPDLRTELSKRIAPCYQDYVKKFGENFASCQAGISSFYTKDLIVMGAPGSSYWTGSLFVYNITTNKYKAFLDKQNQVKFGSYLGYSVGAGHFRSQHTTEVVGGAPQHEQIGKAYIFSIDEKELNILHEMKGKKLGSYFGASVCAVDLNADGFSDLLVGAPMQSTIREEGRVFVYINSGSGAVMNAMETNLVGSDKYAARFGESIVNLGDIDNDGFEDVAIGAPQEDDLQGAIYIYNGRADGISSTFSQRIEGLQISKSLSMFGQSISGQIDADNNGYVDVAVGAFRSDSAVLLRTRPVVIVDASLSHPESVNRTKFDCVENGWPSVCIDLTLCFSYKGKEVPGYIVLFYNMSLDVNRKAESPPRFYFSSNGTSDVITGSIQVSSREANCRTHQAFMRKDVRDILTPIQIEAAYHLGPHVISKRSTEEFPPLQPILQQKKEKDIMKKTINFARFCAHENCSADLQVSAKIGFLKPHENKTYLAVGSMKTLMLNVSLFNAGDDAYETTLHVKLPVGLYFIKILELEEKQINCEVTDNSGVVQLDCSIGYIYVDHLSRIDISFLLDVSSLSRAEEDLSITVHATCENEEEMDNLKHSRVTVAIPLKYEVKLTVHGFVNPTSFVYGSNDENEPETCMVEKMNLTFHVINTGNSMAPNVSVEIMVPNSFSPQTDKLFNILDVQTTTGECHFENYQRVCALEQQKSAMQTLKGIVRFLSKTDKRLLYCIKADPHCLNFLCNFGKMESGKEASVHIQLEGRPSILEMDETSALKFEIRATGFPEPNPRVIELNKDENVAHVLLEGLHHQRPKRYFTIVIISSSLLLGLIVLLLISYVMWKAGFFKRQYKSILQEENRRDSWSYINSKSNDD
T1 sequence (P05556 21-798): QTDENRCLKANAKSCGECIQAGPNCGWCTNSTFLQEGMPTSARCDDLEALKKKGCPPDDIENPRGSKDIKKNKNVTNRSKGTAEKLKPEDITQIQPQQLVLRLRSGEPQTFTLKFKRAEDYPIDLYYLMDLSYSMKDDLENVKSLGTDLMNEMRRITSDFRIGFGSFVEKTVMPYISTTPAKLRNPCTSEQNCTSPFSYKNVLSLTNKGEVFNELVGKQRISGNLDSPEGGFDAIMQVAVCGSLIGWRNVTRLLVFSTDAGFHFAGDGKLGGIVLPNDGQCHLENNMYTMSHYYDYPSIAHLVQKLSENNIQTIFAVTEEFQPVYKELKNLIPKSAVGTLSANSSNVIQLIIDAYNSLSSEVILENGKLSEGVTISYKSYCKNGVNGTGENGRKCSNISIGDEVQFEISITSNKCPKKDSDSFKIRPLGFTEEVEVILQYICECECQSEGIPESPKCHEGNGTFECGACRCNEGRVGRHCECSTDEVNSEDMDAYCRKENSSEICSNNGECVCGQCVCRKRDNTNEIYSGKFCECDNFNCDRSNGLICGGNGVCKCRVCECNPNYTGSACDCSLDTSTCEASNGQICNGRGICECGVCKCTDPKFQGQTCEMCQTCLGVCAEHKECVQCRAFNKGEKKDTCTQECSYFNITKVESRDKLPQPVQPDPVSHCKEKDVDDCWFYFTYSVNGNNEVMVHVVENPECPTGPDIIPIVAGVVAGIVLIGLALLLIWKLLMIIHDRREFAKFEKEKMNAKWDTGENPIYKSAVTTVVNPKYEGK
Outline: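 CS-1 peptide was SPDP-crosslinked onto HSA-coated plates and blocked with BSA. Jurkat cells (2.5×10^6 cells/ml) in DMEM/BSA were mixed with compound, generally at 100, 20, 5 and 1.25 μM, and allowed to adhere for 1 hr at 37° C. Bound cells were fixed, stained with toluidine blue and quantified by OD590.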

[2] = target: T2, α4β1 integrin (Jurkat T-cell adhesion to IL-1 stimulated endothelial cell monolayers) (Homo sapiens, UniProt P05556+P13612); test: Jurkat-Endothelial Cell Adhesion Assay (Jurkat EC); assay type: cell-based; details: Jurkat cells on IL-1 stimulated HUVEC monolayers
T2 construct: a T-cell line, Jurkat, known to express the α4β1 integrin; host or cells: Jurkat T-cell line
T2 sequence (P13612 34-1032): as the sequence (P13612 34-1032) above
T2 sequence (P05556 21-798): as the sequence (P05556 21-798) above
Outline: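 BCECF-loaded Jurkat cells (5×10^5) mixed with compound (generally 100, 20, 5 and 1.25 μM) and added to HUVEC monolayers prestimulated 4 hr with 0.1 ng/ml IL-1, in DMEM-HSA. After 5 min on ice and 20 min at 37° C, washed; fluorescence gives % adhesion relative to no-compound control set at 100%.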

SMILES | IC50 [1] [nM] | melting point | IC50 [2] [nM]
CC1(C)[C@@H](C(=O)N[C@@H](Cc2ccc(OCc3ccccc3)cc2)C(=O)O)CC[C@@]1(C)C(=O)O [Example 2, (1S-cis)-N-[(3-Carboxy-2,2,3-trimethylcyclopentyl)carbonyl]-O-(phenylmethyl)-L-tyrosine] | 500 to 1000 | 146 to 149 °C | 
CC1(C)[C@@H](C(=O)N[C@@H](Cc2ccc(OCC3CCCCC3)cc2)C(=O)O)CC[C@@]1(C)C(=O)O [Example 13] | 500 to 1000 | 102 to 105 °C | 5000 to 10000
CCCCC(CC)COc1ccc(CC(NC(=O)C2CCC(C)(C(=O)O)C2(C)C)C(=O)O)cc1 (centres unmarked) [Example 14] |  | 94 to 97 °C | 5000 to 10000
CC1(C)[C@@H](C(=O)N[C@@H](Cc2cn(Cc3ccccc3)cn2)C(=O)O)CC[C@@]1(C)C(=O)O [Example 29] | 500 to 1000 | 258 to 259 °C (dec.) | 5000 to 10000
CC1(C)[C@@H](C(=O)N[C@@H](Cc2ccc(NC(=O)C3CCCCC3)cc2)C(=O)O)CC[C@@]1(C)C(=O)O [Example 75] |  | 151 to 154 °C | 800 to 5000
CC1(C)[C@@H](C(=O)N[C@@H](Cc2ccc(NC(=O)c3ccccn3)cc2)C(=O)O)CC[C@@]1(C)C(=O)O [Example 77] | 80 to 500 | 102 to 104 °C | 800 to 5000
CC(=O)Nc1ccc(C[C@H](NC(=O)[C@H]2CC[C@@](C)(C(=O)O)C2(C)C)C(=O)O)cc1 [Example 79] |  | 238 to 240 °C | 5000 to 10000
CC1(C)[C@@H](C(=O)N[C@@H](Cc2ccc(NC(=O)c3ccccc3)cc2)C(=O)O)CC[C@@]1(C)C(=O)O [Example 85] | 80 to 500 | 145 to 148 °C | 5000 to 10000
CC1(C)[C@@H](C(=O)N[C@@H](Cc2ccc(NC(=O)c3cccc(C(=O)c4ccccc4)c3)cc2)C(=O)O)CC[C@@]1(C)C(=O)O [Example 89] | 80 to 500 | 190 to 193 °C | 800 to 5000
CC1(C)[C@@H](C(=O)N[C@@H](Cc2ccc(NC(=O)c3cccc([N+](=O)[O-])c3)cc2)C(=O)O)CC[C@@]1(C)C(=O)O [Example 91] | ≤ 80 | 146 to 149 °C | 800 to 5000
COc1ccccc1C(=O)Nc1ccc(C[C@H](NC(=O)[C@H]2CC[C@@](C)(C(=O)O)C2(C)C)C(=O)O)cc1 [Example 95] | 80 to 500 | 140 to 143 °C | 800 to 5000
CC1(C)[C@@H](C(=O)N[C@@H](Cc2ccc(NC(=O)c3ccccc3Cl)cc2)C(=O)O)CC[C@@]1(C)C(=O)O [Example 120] | 80 to 500 | 143 to 145 °C | 800 to 5000
CC1(C)[C@@H](C(=O)N[C@@H](Cc2ccc(NC(=O)Cc3ccccc3)cc2)C(=O)O)CC[C@@]1(C)C(=O)O [Example 121] | 500 to 1000 | 240 to 242 °C | 800 to 5000
CCCCCCCc1ccc(C(=O)Nc2ccc(C[C@H](NC(=O)[C@H]3CC[C@@](C)(C(=O)O)C3(C)C)C(=O)O)cc2)cc1 [Example 122] |  | 212 to 214 °C | 800 to 5000
CC1(C)[C@@H](C(=O)N[C@@H](Cc2ccc(NC(=O)c3ccc4ccccc4c3)cc2)C(=O)O)CC[C@@]1(C)C(=O)O [Example 124] | 80 to 500 | 141 to 143 °C | 800 to 5000
CC1(C)[C@@H](C(=O)N[C@@H](Cc2ccc(NC(=O)c3ccc(Cl)cc3)cc2)C(=O)O)CC[C@@]1(C)C(=O)O [Example 128] | 80 to 500 | 185 to 188 °C | 800 to 5000
CC1(C)[C@@H](C(=O)N[C@@H](Cc2ccc(NC(=O)c3ccco3)cc2)C(=O)O)CC[C@@]1(C)C(=O)O [Example 130] | 80 to 500 | 158 to 161 °C | 800 to 5000
CC1(C)[C@@H](C(=O)N[C@@H](Cc2ccc(NC(=O)c3ccccc3F)cc2)C(=O)O)CC[C@@]1(C)C(=O)O [Example 132] | 80 to 500 | 117 to 120 °C | 800 to 5000
CC(C)CC(=O)Nc1ccc(C[C@H](NC(=O)[C@H]2CC[C@@](C)(C(=O)O)C2(C)C)C(=O)O)cc1 [Example 134] |  | 146 to 148 °C | 800 to 5000
CC1(C)[C@@H](C(=O)N[C@@H](Cc2ccc(NC(=O)c3cccc4c3Cc3ccccc3-4)cc2)C(=O)O)CC[C@@]1(C)C(=O)O [Example 136] | 500 to 1000 | 160 to 163 °C | 5000 to 10000
CC(C)COC(=O)Nc1ccc(C[C@H](NC(=O)[C@H]2CC[C@@](C)(C(=O)O)C2(C)C)C(=O)O)cc1 [Example 141] | 500 to 1000 | 125 to 128 °C | 800 to 5000
CC1(C)[C@@H](C(=O)N[C@@H](Cc2ccc(NC(=O)c3ccccc3O)cc2)C(=O)O)CC[C@@]1(C)C(=O)O [Example 143] | 500 to 1000 | 148 to 150 °C | 
CONC(=O)[C@]1(C)CC[C@H](C(=O)N[C@@H](Cc2ccc(OCc3c(Cl)cccc3Cl)cc2)C(=O)O)C1(C)C [Example 163] | 500 to 1000 | 70 to 72 °C | 
CC(=O)N(Cc1c(Cl)cccc1Cl)c1ccc(C[C@H](NC(=O)[C@H]2CC[C@@](C)(C(=O)O)C2(C)C)C(=O)O)cc1 [Example 170] |  | 241 to 244 °C | 5000 to 10000
CC1(C)[C@@H](C(=O)O)CC[C@]1(C)C(=O)N[C@H](Cc1ccc(NC(=O)c2c(Cl)cccc2Cl)cc1)C(=O)O [Example 246, (1S-trans)-N-[(3-Carboxy-1,2,2-trimethylcyclopentyl)carbonyl]-4-[(2,6-dichlorobenzoyl)amino]-D-phenylalanine] |  | 145 to 150 °C | 
CC1(C)[C@H](C(=O)O)CC[C@@]1(C)C(=O)N[C@@H](Cc1ccc(NC(=O)c2c(Cl)cccc2Cl)cc1)C(=O)O [Example 250, (1R-trans)-N-[(3-Carboxy-1,2,2-trimethylcyclopentyl)carbonyl]-4-[(2,6-dichlorobenzoyl)amino]-L-phenylalanine] |  | 148 to 155 °C | 
CC1(C)[C@@H](C(=O)N[C@@H](Cc2ccc(NC(=O)c3c(Cl)cccc3Cl)c(Br)c2)C(=O)O)CC[C@@]1(C)C(=O)O [Example 252, (1S-cis)-N-[(3-Carboxy-2,2,3-trimethylcyclopentyl)carbonyl]-3-bromo-4-[(2,6-dichlorobenzoyl)amino]-L-phenylalanine] |  | 150 to 152 °C | 

Further lines, results first:

IC50 [1] [nM] | melting point | IC50 [2] [nM] | SMILES
 | 88 to 90 °C | 800 to 5000 | CC1(C)[C@@H](C(=O)N[C@@H](Cc2cccc(OCc3ccccc3)c2)C(=O)O)CC[C@@]1(C)C(=O)O [Example 46]
80 to 500 | 168 to 171 °C | 800 to 5000 | CC1(C)[C@@H](C(=O)N[C@@H](Cc2ccc(O)c(NC(=O)c3c(Cl)cccc3Cl)c2)C(=O)O)CC[C@@]1(C)C(=O)O [Example 61]
80 to 500 | 195 to 198 °C | ≤ 800 | Cc1cccc(C)c1C(=O)Nc1ccc(C[C@H](NC(=O)[C@H]2CC[C@@](C)(C(=O)O)C2(C)C)C(=O)O)cc1 [Example 81]
≤ 80 | 150 to 152 °C | ≤ 800 | CC1(C)[C@@H](C(=O)N[C@@H](Cc2ccc(NC(=O)c3c(F)cccc3F)cc2)C(=O)O)CC[C@@]1(C)C(=O)O [Example 83]
≤ 80 | 155 to 158 °C | ≤ 800 | CC1(C)[C@@H](C(=O)N[C@@H](Cc2ccc(NC(=O)c3cc(Cl)ccc3Cl)cc2)C(=O)O)CC[C@@]1(C)C(=O)O [Example 87]
≤ 80 | 170 to 173 °C | ≤ 800 | CC1(C)[C@@H](C(=O)N[C@@H](Cc2ccc(NC(=O)c3cc(Br)ccc3Br)cc2)C(=O)O)CC[C@@]1(C)C(=O)O [Example 97]
≤ 80 | 148 to 150 °C | ≤ 800 | CC1(C)[C@@H](C(=O)N[C@@H](Cc2ccc(NC(=O)c3cc(C(F)(F)F)ccc3C(F)(F)F)cc2)C(=O)O)CC[C@@]1(C)C(=O)O [Example 104]
≤ 80 | 165 to 168 °C | ≤ 800 | Cc1cccc(Cl)c1C(=O)Nc1ccc(C[C@H](NC(=O)[C@H]2CC[C@@](C)(C(=O)O)C2(C)C)C(=O)O)cc1 [Example 106]
≤ 80 | 180 to 183 °C | ≤ 800 | CC1(C)[C@@H](C(=O)N[C@@H](Cc2ccc(NC(=O)c3ccccc3C(F)(F)F)cc2)C(=O)O)CC[C@@]1(C)C(=O)O [Example 108]
≤ 80 | 162 to 165 °C | ≤ 800 | CC1(C)[C@@H](C(=O)N[C@@H](Cc2ccc(NC(=O)c3ccccc3I)cc2)C(=O)O)CC[C@@]1(C)C(=O)O [Example 110]
≤ 80 | 156 to 158 °C | ≤ 800 | CC1(C)[C@@H](C(=O)N[C@@H](Cc2ccc(NC(=O)c3ccccc3Br)cc2)C(=O)O)CC[C@@]1(C)C(=O)O [Example 112]
80 to 500 | 155 to 157 °C | ≤ 800 | CC1(C)[C@@H](C(=O)N[C@@H](Cc2ccc(NC(=O)c3ccc(Cl)c(Cl)c3)cc2)C(=O)O)CC[C@@]1(C)C(=O)O [Example 114]
≤ 80 | 162 to 165 °C | ≤ 800 | CC1(C)[C@@H](C(=O)N[C@@H](Cc2ccc(NC(=O)c3ccc(-c4ccccc4)cc3)cc2)C(=O)O)CC[C@@]1(C)C(=O)O [Example 116]
